Test results as given in patent publication US12564572B2, “Topical ocular delivery of cromakalim” (QLARIS BIO, INC., priority 2022, dated 2026).

Columns and labels:
[1] = system: patients with primary open-angle glaucoma; conditions: cited from earlier work
KATP channels = conditions: in the presence of ATP; cited from earlier work
rabbit eyes = conditions: 0.5% cromakalim in 0.02 M phosphate buffer; cited from earlier work
Dutch Belted rabbits = assay: 28 day repeated dose toxicology and toxicokinetic study by ocular topical administration in Dutch Belted rabbits (Example 12); conditions: rabbit, in vivo, topical or ocular; for Tmax: male
Description: Plasma concentrations of levcromakalim were evaluated in DB rabbits after twice a day (BID) oculus uterque (OU, both eyes) topical ophthalmic (T.O.) administration of formulation 3d for 28 days at dose levels of 0, 0.012, 0.03, and 0.06 mg/eye/dose.
Plasma concentrations of levcromakalim were evaluated in DB rabbits after BID OU T.O. administration of three concentrations of formulation 3d at dose levels of 0, 0.012, 0.03, and 0.06 mg/eye/dose (0, 0.024, 0.06, and 0.12 mg/eye/day respectively or 0.030% [1.0 mM], 0.075% [2.5 mM], or 0.15% [5 mM] respectively) for 28 days. Plasma was collected from 3 animals/dose group at pre-dose, 0.5, 1, 2, 3, 4, 6, and 12 hours post-first dose on Days 1 and 28.

In the case of CC1(C)Oc2ccc(C#N)cc2[C@@H](N2CCCC2=O)[C@@H]1OP(=O)(O)O [QLS-101], the “Hyperemia (eye redness)” value ([1]; in vivo) is given as “no evidence of hyperemia” and the Efficacy ([1]; patients with primary open-angle glaucoma) is given as “positive efficacy signal”.

For CC1(C)Oc2ccc(C#N)cc2C(N2CCCC2=O)C1O (centres unmarked) [cromakalim], the “Increase of open-state probability (Popen) of single KATP channels” value (KATP channels) is listed as “more than 9 fold” and the “Effect on IOP after topical administration” value (rabbit eyes) is listed as “tended to increase IOP”.

In the case of CC1(C)Oc2ccc(C#N)cc2[C@@H](N2CCCC2=O)[C@@H]1O [levcromakalim], the AUCtlast (Dutch Belted rabbits; female, 0.03 mg) is reported as 3.99 ng·h/mL, the t1/2 (Dutch Belted rabbits; female, 0.06 mg) is reported as 1.77 and the Tmax (Dutch Belted rabbits; 0.012 mg) is reported as 70.2 min. It also gave a Tmax (Dutch Belted rabbits; 0.06 mg) of 42 min.
